The results in this text go back to doi:10.1101/2021.06.16.448762v1 (biorxiv, 2021).

One data set has as its system GgNAD-MEα/β2. Description: NADH formation at […] nm. Format: biochemical, Gynandropsis gynandra. The settings on record: read-out: Km malate; no aspartate; 4 mM NAD, 10 mM MnCl2, MES pH 6.2-6.4.
A further data set relates to ThNAD-MEα/β1. Briefly: NADH formation at […] nm. Format: biochemical, Tarenaya hassleriana. The note with it: read-out: Km malate; 4 mM NAD, 10 mM MnCl2, MES pH 6.2-6.4.
For another data set, the system named is GgNAD-MEα. Description: NADH formation at […] nm. The data set is classed as biochemical, Gynandropsis gynandra. The note with it: read-out: Km malate; 4 mM NAD, 10 mM MnCl2, MES pH 6.2-6.4.
Another data set concerns ThNAD-MEα. Briefly: NADH formation at […] nm. Format: biochemical, Tarenaya hassleriana. The settings on record: read-out: Km malate; 4 mM NAD, 10 mM MnCl2, MES pH 6.2-6.4.
Another data set concerns ThNAD-MEβ2. Description: NADH formation at […] nm. The data set is classed as biochemical, Tarenaya hassleriana. The settings on record: read-out: Km malate; 4 mM NAD, 10 mM MnCl2, MES pH 6.2-6.4.
Another data set has as its system ThNAD-MEα/β2. Description: NADH formation at […] nm. Format: biochemical, Tarenaya hassleriana. The settings on record: read-out: Km malate; 4 mM NAD, 10 mM MnCl2, MES pH 6.2-6.4.
The next data set concerns GgNAD-MEβ2. Description: NADH formation at […] nm. Format: biochemical, Gynandropsis gynandra. The note with it: read-out: Km malate; no aspartate; 4 mM NAD, 10 mM MnCl2, MES pH 6.2-6.4.
Another data set has as its system ThNAD-MEβ1. Description: NADH formation at […] nm. The settings on record: read-out: Km malate; 4 mM NAD, 10 mM MnCl2, MES pH 6.2-6.4. Format: biochemical, Tarenaya hassleriana.
Substrate in the data set “purified protein”: O=C(O)C[C@H](O)C(=O)O
Description: purified protein. The note with it: no aspartate; 4 mM NAD, 10 mM MnCl2, MES pH 6.2-6.4; pH 6.0.

`O=C(O)C[C@H](O)C(=O)O` [malate]: the Michaelis-Menten constant (Km) (as a rule, the concentration of substrate that gives half-maximal velocity) is 3.5 ± 0.5 mM in the data set on GgNAD-MEα/β2; 6.6 ± 1.6 mM in the data set on ThNAD-MEα/β1; 3.1 ± 0.4 mM in the data set with GgNAD-MEα; 5.4 ± 1.3 mM in the data set on ThNAD-MEα; 6.8 ± 1.7 mM with ThNAD-MEβ2; 3.4 ± 1 mM in the data set on ThNAD-MEα/β2. The Km with GgNAD-MEβ2 was found to be 2.6 ± 1 mM; with ThNAD-MEβ1 it was 9.2 ± 2.3 mM.

B1: AtNAD-MEα/β (Arabidopsis thaliana) (protein)
chain 1: PTIVHKQGLDILHDPWFNKGTAFTMTERNRLDLRGLLPPNVMDSEQQIFRFMTDLKRLEEQARDGPSDPNALAKWRILNRLHDRNETMYYKVLINNIEEYAPIVYTPTVGLVCQNYSGLFRRPRGMYFSAEDRGEMMSMVYNWPAEQVDMIVVTDGSRILGLGDLGVHGIGIAVGKLDLYVAAAGINPQRVLPVMIDVGTNNEKLRNDPMYLGLQQRRLEDDDYIDVIDEFMEAVYTRWPHVIVQFEDFQSKWAFKLLQRYRCTYRMFNDDVQGTAGVAIAGLLGAVRAQGRPMIDFPKMKIVVAGAGSAGIGVLNAARKTMARMLGNTETAFDSAQSQFWVVDAQGLITEGRENIDPEAQPFARKTKEMERQGLKEGATLVEVVREVKPDVLLGLSAVGGLFSKEVLEAMKGSTSTRPAIFAMSNPTKNAECTPQDAFSILGENMIFASGSPFKNVEFGNGHVGHCNQGNNMYLFPGIGLGTLLSGAPIVSDGMLQAASECLAAYMSEEEVLEGIIYPPISRIRDITKRIAAAVIKEAIEEDLVEGYREMDAREIQKLDEEGLMEYVENNMWNPEYPTLVYKDD
chain 2: CIVHKRGADILHDPWFNKDTGFPLTERDRLGIRGLLPPRVMTCVQQCDRFIESFRSLENNTKGEPENVVALAKWRMLNRLHDRNETLYYRVLIDNIKDFAPIIYTPTVGLVCQNYSGLYRRPRGMYFSAKDKGEMMSMIYNWPAPQVDMIVITDGSRILGLGDLGVQGIGIPIGKLDMYVAAAGINPQRVLPIMLDVGTNNEKLLQNDLYLGVRQPRLEGEEYLEIIDEFMEAAFTRWPKAVVQFEDFQAKWAFGTLERYRKKFCMFNDDVQGTAGVALAGLLGTVRAQGRPISDFVNQKIVVVGAGSAGLGVTKMAVQAVARMAGISESEATKNFYLIDKDGLVTTERTKLDPGAVLFAKNPAEIREGASIVEVVKKVRPHVLLGLSGVGGIFNEEVLKAMRESDSCKPAIFAMSNPTLNAECTAADAFKHAGGNIVFASGSPFENVELENGKVGHVNQANNMYLFPGIGLGTLLSGARIVTDGMLQAASECLASYMTDEEVQKGILYPSINNIRHITAEVGAAVLRAAVTDDIAEGHGDVGPKDLSHMSKEDTVNYITRNMWFPVYSPLVHEK
As to B1, in the data set “purified protein”, the Michaelis-Menten constant (Km) came to 3.2 ± 0.4 mM; the kcat (in general, the number of substrate molecules converted per active site and unit of time at saturation) is 30.7 ± 2.0 s⁻¹.
